“Also recorded” adds a separate entry of the source.
Assays:
H1-EPSCs [1] = experiment: EB formation assay of H1-EPSCs, lineage gene expression; format: cell-based, human; conditions: 5.0 ng/ml supplemented in hEPSCM
Experimental: Porcine and human EPSCs were trypsinised and seeded in gelatinised 6-well plates at a density of 4×10^6 cells/well for pre-differentiation. M15 media supplemented with 20 ng/ml ACTIVIN A (SCI) and 5 μM Rock inhibitor Y-27632 were used to culture the replated cells. The next day, the cells were detached using 0.25% trypsin/EDTA (Gibco, Cat. No. 25500-054) and plated to ultra-low cell attachment U-bottom 96-well plates (Corning, Cat. No. 7007) at a density of 5,000-6,000 cells/well in 200 μl M10 medium. After 7-8 days of growing, the EBs were collected for analysis. 0.25% (v/v) poly-vinyl alcohol (Sigma, Cat. No. 341584) was added in the medium to help cells aggregation.
Total RNA was isolated using an RNeasy Mini Kit (Qiagen, Cat. No. 74106) for cultured cells or RNeasy Micro Kit (Qiagen, Cat. No. 74034) for sorted NANOS3-mCherry^+ cells. RNA was subsequently quantified and treated with gDNA WipeOut to remove genomic DNA. Complementary DNA (cDNA) was prepared using a QuantiTect Reverse Transcription Kit (Qiagen, Cat. No. 205311). RT-qPCR primers or TaqMan Gene Expression Assays (Life Technologies) are listed in Supplementary Table 10 and 11. […] Gene expression was determined relative to GAPDH using the […]. […]

H1-EPSCs [2] = experiment: Requirement of individual culture components for hEPSCs (RT-qPCR, AP+ colony formation); format: cell-based, human; conditions: in the presence of 5.0 ng/ml
Experimental: Porcine and human EPSC cultures were routinely maintained on STO feeders. STO feeder plates were prepared 3-4 days before passaging by thawing and plating the mitomycin C inactivated STO cells on 0.1% gelatinised plates at the density of ˜1.1×10^4 cells/cm^2. Porcine/human EPSC cells were maintained on STO feeder layers and enzymatically passaged every 3-5 days by a brief PBS wash followed by treatment for 3-5 minutes with 0.25% trypsin/EDTA (Gibco, Cat. No. 25500-054). The cells were dissociated and centrifuged (300 g×5 minutes) in M10 medium. M10: knockout DMEM (Gibco, Cat. No. 10829-018), 10% FBS (Gibco, Cat. No. 10270), 1× Glutamine Penicillin-Streptomycin (Thermo Fisher Scientific, Cat. No. 11140050) and 1×NEAA (Thermo Fisher Scientific, Cat. No. 10378-016). After removing supernatant, the porcine/human EPSCs were re-suspended and seeded in pEPSCM/hEPSCM supplemented with 5 μM ROCK inhibitor Y-27632 (Tocris, Cat. No. 1254). 5% FBS (Gibco, Cat. No. 10270) and 10% KnockOut Serum Replacement (KSR) (Gibco, Cat. No. 10828028) were added in pEPSCM and hEPSCM respectively to improve cells survive. 12-24 hours later, medium was switched to pEPSCM/hEPSCM only. Both pEPSCM and hEPSCM are N2B27 based media. N2B27 basal media (500 ml) was prepared by inclusion of the following components: 482.5 ml DMEM/F-12 (Gibco, Cat. No. 21331-020), 2.5 ml N2 supplement (Thermo Fisher Scientific, Cat. No. 17502048), 5 ml B27 supplement (Thermo Fisher Scientific, Cat. No. 17504044), 5 ml 1× Glutamine Penicillin-Streptomycin (Thermo Fisher Scientific, Cat. No. 11140-050), and 5 ml 1×NEAA (Thermo Fisher Scientific, Cat. No. 10378-016), 0.1 mM 2-mercaptoethanol (Sigma, Cat. No. M6250). pEPSCM (500 ml) was generated by adding the following small molecules and cytokines into 500 ml N2B27 basal media: 0.2 μM CHIR99021(GSK3i, TOCRIS, Cat. No. 4423), 1 μM WH-4-023 (SRC inhibitor, TOCRIS, Cat. No. 5413), 2.5 μM XAV939 (Sigma, Cat. No. X3004) or 2.5 μM IWR-1 (TOCRIS, Cat. No. 3532), […] Vitamin C (Sigma, Cat. No. 49752-100G), 10 ng/ml LIF (Stem Cell Institute, University of Cambridge. SCI) and 20 ng/ml ACTIVIN (SCI). hEPSCM (500 ml) was generated by adding the following components into 500 ml N2B27 basal media: 1.0 μM CHIR99021(GSK3 inhibitor, TOCRIS, Cat. No. 4423), 0.5 μM A-419259 (SRC inhibitor, TOCRIS, Cat. No. 3914), 2.5 μM XAV939 (Sigma, Cat. No. X3004), […] Vitamin C (Sigma, Cat. No. 49752-100G), 10 ng/ml LIF (SCI). Although both targeting SRC family kinases (SFKs), WH-4-023 and A419259 were preferred for porcine and human EPSCs, respectively. […] The concentrations of CHIR99021 for porcine and human EPSC cultures are 0.2 μM and 1.0 μM, respectively. […] 0.25 μM SB 590885 (BRAF inhibitor, R&D, Cat. No. 2650) and 2.0 μM SP600125 ([…], TOCRIS, Cat. No. 1496) were included to improve porcine and human EPSC cultures, but they were not essential for the routine maintenance of porcine and human EPSCs. All cell cultures in this paper were performed under conditions of 37° C. and 5% CO2 unless stated otherwise.
Total RNA was isolated using an RNeasy Mini Kit (Qiagen, Cat. No. 74106) for cultured cells or RNeasy Micro Kit (Qiagen, Cat. No. 74034) for sorted NANOS3-mCherry^+ cells. RNA was subsequently quantified and treated with gDNA WipeOut to remove genomic DNA. Complementary DNA (cDNA) was prepared using a QuantiTect Reverse Transcription Kit (Qiagen, Cat. No. 205311). RT-qPCR primers or TaqMan Gene Expression Assays (Life Technologies) are listed in Supplementary Table 10 and 11. ABsolute Blue qPCR ROX Mix (ABgene, Cat. No. AB4138B) were used for probe based qPCR assays and SYBR Green ROX qPCR Mastermix (Qiagen, Cat. No. 330523) were used for primer based qPCR assays. All qPCR reactions were performed on ABI 7900 HT Sequence Detection System (Life Technologies). Information on all primers and probes used for qPCR analysis are provided in Supplementary Table 10 and 11. Gene expression was determined relative to GAPDH using the […]. […]

Question: For “ACTIVIN A: Human Recombinant ACTIVIN A cytokine”, which “embryonic mesendoderm lineage differentiation / lineage gene expression in EBs” value (H1-EPSCs [1]) is on record?
Answer: The value was “stronger propensity for embryonic mesendoderm lineage differentiation; also recorded: substantially increased”.

Question: And the “cell survival at passaging” value (H1-EPSCs [2])?
Answer: The value was “substantially improved”.
